These are literature values, as cited in patent publication US20060002865A1, “Stable baking soda/peroxide with calcium and phosphate whitening product” (priority 2004, published 2006).

For data set [1] the following is noted: aqueous solution, pH about 7.0, about 25° C.

Consider `[Mg+2].[O-][O-]` [Magnesium peroxide], for which the “solubility in water (in words)” value is given as “essentially insoluble”.

As to Sodium perborate, the solubility in water result was “about 2.5%”.

Turning to `O.O.O=P([O-])([O-])O.[Ca+2]` [dicalcium phosphate dihydrate], the calcium cations released result in data set [1] is on record as “about 40 ppm”.
